Test results published in ChEMBL document CHEMBL5537110, “SIRT1-dependent mitochondrial biogenesis supports therapeutic effects of 4-butyl-polyhydroxybenzophenone compounds against NAFLD” (Eur J Med Chem, 2023).
The source made the active and inactive calls. The calls are words filed in the database; no cut-off is given here.

Columns and labels:
Rattus norvegicus [1] = assay: Hepatoprotective activity against high fat diet-fed NAFLD Sprague-Dawley rat model assessed as decrease in serum LDH level administered intragastrically via gavage for 4 weeks; type: functional, organism-based; conditions: dose 12.3-61.4 mg/kg, route ig
HepG2 [2] = assay: Induction of mitochondrial biogenesis in human HepG2 cells assessed as TFAM protein expression incubated for 24 hrs in presence of SIRT1 inhibitor, EX527 by western blot analysis; type: functional, cell-based
Rattus norvegicus [3] = assay: Hepatoprotective activity against high fat diet-fed NAFLD Sprague-Dawley rat model assessed as less ballooning degeneration and smaller fatty droplets in hepatocytes at 12.3 to 61.4 mg/kg, IG administered via gavage for 4 weeks by Hematoxylin-Eosin staining based analysis; type: functional, organism-based; conditions: dose 12.3-61.4 mg/kg
HepG2 [4] = assay: Recovery of mitochondrial biogenesis in 40% FBS-induced steatosis human HepG2 cells model assessed as increase in mitochondrial ND6 mRNA expression incubated for 24 hrs by qRT-PCR analysis; type: functional, cell-based; conditions: dose 0.2-5 µM
Rattus norvegicus [5] = assay: Hepatoprotective activity against high fat diet-fed NAFLD Sprague-Dawley rat model assessed as decrease in serum total cholesterol content administered intragastrically via gavage for 4 weeks; type: functional, organism-based; conditions: dose 12.3-61.4 mg/kg, route ig
HepG2 [6] = assay: Recovery of mitochondrial biogenesis in 40% FBS-induced steatosis human HepG2 cells model assessed as increase in PGC1alpha mRNA expression incubated for 24 hrs by qRT-PCR analysis; type: functional, cell-based; conditions: dose 0.2-5 µM
HepG2 [7] = assay: Inhibition of liver injury in 40% FBS-induced steatosis human HepG2 cells model assessed as increase in liver protection index by measuring increase in GSH level at 0.2 to 5 uM incubated in steatosis inducing DMEM with 40% FBS medium for 24 hrs followed by compound treatment; type: functional, cell-based; conditions: dose 0.2-5 µM
HepG2 [8] = assay: Inhibition of oxidative stress in 40% FBS-induced steatosis human HepG2 cells model assessed as reduction in mitochondrial ROS production incubated with compound for 24 hrs followed by replacement with steatosis inducing DMEM with 40% FBS medium by MitoSOX Red dye based fluorescence microscopy; type: functional, cell-based; conditions: Mitochondria, dose 0.2-5 µM
HepG2 [9] = assay: (§1) Inhibition of mitochondrial membrane potential dissipation in 40% FBS-induced steatosis human HepG2 cells model assessed as increase in mitochondrial membrane potential incubated in steatosis inducing DMEM with 40% FBS medium for 24 hrs followed by compound treatment by JC-1 staining based fluorescence microscopy; type: functional, cell-based; conditions: Mitochondria, dose 0.2-5 µM
Rattus norvegicus [10] = assay: Hepatoprotective activity against high fat diet-fed NAFLD Sprague-Dawley rat model assessed as increase in serum GSH level administered intragastrically via gavage for 4 weeks; type: functional, organism-based; conditions: dose 12.3-61.4 mg/kg, route ig
Rattus norvegicus [11] = assay: Hepatoprotective activity against high fat diet-fed NAFLD Sprague-Dawley rat model assessed as increase in serum SOD level administered intragastrically via gavage for 4 weeks; type: functional, organism-based; conditions: dose 12.3-61.4 mg/kg, route ig
Rattus norvegicus [12] = assay: Hepatoprotective activity against high fat diet-fed NAFLD Sprague-Dawley rat model assessed as decrease in serum GDH level administered intragastrically via gavage for 4 weeks; type: functional, organism-based; conditions: dose 12.3-61.4 mg/kg, route ig
HepG2 [13] = assay: Recovery of energy production in 40% FBS-induced steatosis human HepG2 cells model assessed as upregulation of mitochondrial ATP production incubated in steatosis inducing DMEM with 40% FBS medium for 24 hrs followed by compound treatment by luciferase based assay; type: functional, cell-based; conditions: Mitochondria, dose 0.2-5 µM
HepG2 [14] = assay: Inhibition of lipid toxicity in 40% FBS-induced steatosis human HepG2 cells model assessed as decrease in triglyceride content at 0.2 to 5 uM incubated in steatosis inducing DMEM with 40% FBS medium for 24 hrs followed by compound treatment; type: functional, cell-based; conditions: dose 0.2-5 µM
HepG2 [15] = assay: Inhibition of liver injury in 40% FBS-induced steatosis human HepG2 cells model assessed as increase in liver protection index by measuring increase in ratio of GSH to GSSG at 0.2 to 5 uM incubated in steatosis inducing DMEM with 40% FBS medium for 24 hrs followed by compound treatment; type: functional, cell-based; conditions: dose 0.2-5 µM
HepG2 [16] = assay: Recovery of mitochondrial biogenesis in 40% FBS-induced steatosis human HepG2 cells model assessed as increase in PGC1alpha protein expression incubated for 24 hrs by western blot analysis; type: functional, cell-based; conditions: dose 0.2-5 µM
[17] = target: T1, Peroxisome proliferator-activated receptor gamma coactivator 1-alpha (Homo sapiens, UniProt Q9UBK2); assay: (§2) Binding affinity to PGC1alpha (unknown origin) by surface plasmon resonance assay
T1 sequence (Q9UBK2 whole entry): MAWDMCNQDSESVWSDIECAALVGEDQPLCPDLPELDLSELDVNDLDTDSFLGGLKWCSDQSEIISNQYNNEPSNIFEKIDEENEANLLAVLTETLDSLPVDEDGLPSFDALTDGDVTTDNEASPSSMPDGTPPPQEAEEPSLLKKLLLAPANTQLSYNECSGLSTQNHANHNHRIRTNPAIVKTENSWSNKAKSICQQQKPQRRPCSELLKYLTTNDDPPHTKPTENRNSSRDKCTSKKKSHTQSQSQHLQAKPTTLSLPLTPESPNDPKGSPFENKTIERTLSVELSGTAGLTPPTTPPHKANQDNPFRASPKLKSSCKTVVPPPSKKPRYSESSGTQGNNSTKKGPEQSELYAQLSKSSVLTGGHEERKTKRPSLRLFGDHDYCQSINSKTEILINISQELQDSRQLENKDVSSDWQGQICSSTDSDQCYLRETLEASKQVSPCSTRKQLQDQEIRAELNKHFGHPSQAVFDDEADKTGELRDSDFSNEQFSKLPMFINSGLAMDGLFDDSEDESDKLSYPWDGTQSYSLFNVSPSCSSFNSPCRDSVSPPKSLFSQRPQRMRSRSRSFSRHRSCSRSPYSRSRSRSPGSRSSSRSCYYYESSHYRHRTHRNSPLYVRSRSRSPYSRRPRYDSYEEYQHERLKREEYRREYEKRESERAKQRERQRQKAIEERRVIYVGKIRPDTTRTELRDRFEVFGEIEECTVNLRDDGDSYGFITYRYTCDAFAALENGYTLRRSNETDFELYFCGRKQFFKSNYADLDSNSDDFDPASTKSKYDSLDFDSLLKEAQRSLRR

[18] = target: T2, Peroxisome proliferator-activated receptor gamma coactivator 1-alpha (Homo sapiens) (UniProt Q9UBK2); assay: as §2; conditions: filed as activator
T2 sequence (whole entry): T1 sequence (Q9UBK2 whole entry)

Mitochondria = assay: Inhibition of mitochondrial dysfunction in 40% FBS-induced steatosis human HepG2 cells model assessed as mitochondria with less swelling and organized mitochondrial cristae at 5 uM incubated for 24 hrs by transmission electron microscopy; type: functional
EA.hy 926 = assay: Cytoprotective activity against H2O2-induced toxicity in human EA.hy 926 cells assessed as protective rate at 10 uM pretreated with compound for 4 hrs followed by incubation with H2O2 for 2 hrs by absorbance based analysis; type: functional; conditions: time 6 hrs
HepG2 [19] = assay: as §1, with “incubated with compound for 24 hrs followed by replacement with” for “incubated in”, “medium” for “medium for 24 hrs followed by compound treatment”; type: functional, cell-based; conditions: Mitochondria, dose 0.2-5 µM
HepG2 [20] = assay: Inhibition of lipid toxicity in 40% FBS-induced steatosis human HepG2 cells model assessed as decrease in lipid accumulation at 0.2 to 5 uM incubated with compound for 24 hrs followed by replacement with steatosis inducing DMEM with 40% FBS medium by Oil red O staining based analysis; type: functional, cell-based; conditions: dose 0.2-5 µM
HepG2 [21] = assay: Inhibition of liver injury in 40% FBS-induced steatosis human HepG2 cells model assessed as increase in liver protection index by measuring increase in GSH level at 0.2 to 5 uM incubated with compound for 24 hrs followed by replacement with steatosis inducing DMEM with 40% FBS medium; type: functional, cell-based; conditions: dose 0.2-5 µM
HepG2 [22] = assay: Recovery of mitochondrial biogenesis in 40% FBS-induced steatosis human HepG2 cells model assessed as increase in mitochondrial ND6 protein expression incubated for 24 hrs by western blot analysis; type: functional, cell-based; conditions: dose 0.2-5 µM

With `CC(C)(C)c1ccc(C(=O)c2ccc(O)c(O)c2)cc1` the Activity (Rattus norvegicus [1]) was “Active”, the Activity (HepG2 [2]) was “inactive” and the Activity (Rattus norvegicus [3]) was “Active”. The Activity (HepG2 [4]) was “Dose-Dependent Effect”, the Activity (Rattus norvegicus [5]) was “Dose-Dependent Effect” and the Activity (HepG2 [6]) was “Dose-Dependent Effect”. For the same molecule, the inhibition (HepG2 [7]) was “Active”, the inhibition (HepG2 [8]) was “Dose-Dependent Effect” and the inhibition (HepG2 [9]) was “Dose-Dependent Effect”. The Activity (Rattus norvegicus [10]) was “Active”, the Activity (Rattus norvegicus [11]) was “Active” and the Activity (Rattus norvegicus [12]) was “Active”. The Activity (HepG2 [13]) was “Dose-Dependent Effect”, the inhibition (HepG2 [14]) was “Active” and the inhibition (HepG2 [15]) was “Active”. The Activity (HepG2 [16]) was “Dose-Dependent Effect”, the Kd [17] was 172 µM and the Activity [18] was “Dose-Dependent Effect”. For the same molecule, the inhibition (Mitochondria) was “Active”, the Activity (EA.hy 926) was 87.46% and the inhibition (HepG2 [19]) was “Dose-Dependent Effect”. The inhibition (HepG2 [20]) was “Active”, the inhibition (HepG2 [21]) was “Active” and the Activity (HepG2 [22]) was “Dose-Dependent Effect”.
